Like-named read-outs stand apart in the source and are kept apart here.
How the values were obtained:
KCNQ4 = KCNQ4 (Homo sapiens, UniProt P56696); test: TEVC of homomeric KCNQ4 expressed in Xenopus oocytes; type: cell-based
From the text: (§1) cRNA transcripts encoding human KCNA1, KCNQ1, KCNQ2, KCNQ3, KCNQ4, or KCNQ5 were generated by in vitro transcription using the T7 polymerase message machine kit (Thermo Fisher Scientific), after vector linearization, from cDNA sub-cloned into plasmids incorporating X. laevis β-globin 5′ and 3′ UTRs flanking the coding region to enhance translation and cRNA stability. cRNA was quantified by spectrophotometry. Mutant cDNAs were generated by site-directed mutagenesis using a QuikChange kit according to manufacturer's protocol (Stratagene, San Diego, Calif.) and corresponding cRNAs prepared as above. Defolliculated stage V and VI X. laevis oocytes (Ecocyte Bioscience, Austin, Tex.) were injected with Kv channel a subunit cRNAs (10 ng total per oocyte). Oocytes were incubated at 16° C. in Barth's saline solution (Ecocyte) containing penicillin and streptomycin, with daily washing, for 3-5 days prior to two-electrode voltage-clamp (TEVC) recording.
(§2) TEVC recording was performed at room temperature with an OC-725C amplifier (Warner Instruments, Hamden, Conn.) and pClamp10.2 software (Molecular Devices, Sunnyvale, Calif.) 3-5 days after cRNA injection as described in the section above. Oocytes were placed in a small-volume oocyte bath (Warner) and viewed with a dissection microscope. Chemicals were sourced from Sigma. Bath solution was (in mM): 96 NaCl, 4 KCl, 1 MgCl2, 1 CaCl2. 10 HEPES (pH 7.6). […] MTX (DMSO), sorbic acid (ethanol), and glutaconic acid (molecular grade H2O) were stored at −20° C. as 1 M stocks. Oleamide was stored as a 1 mM stock in ethanol at 4° C. Palmitic acid was conjugated with bovine serum albumin as a 1 mM stock and stored at −20° C. All compounds were diluted to working concentrations each experimental day. All compounds were introduced to the recording bath via gravity perfusion at a constant flow of 1 ml/min for 3 min prior to recording. Pipettes were of 1-2 MΩ resistance when filled with 3 M KCl. Currents were recorded in response to pulses between −80 and +40 mV at 20 mV intervals, or a single pulse to +40 mV, from a holding potential of −80 mV, to yield current-voltage relationships, current magnitude, and for quantifying activation rate. TEVC data analysis was performed with Clampfit10.2 (Molecular Devices) and Graphpad Prism software (GraphPad, San Diego, Calif., USA); values are stated as mean±SEM. Normalized tail currents were plotted versus prepulse voltage and fitted with a single Boltzmann function:
(§3) cRNA transcripts encoding human KCNQ2, KCNQ3, KCNQ4, KCNQ5 (Kv7.2-Kv7.5) were generated by in vitro transcription using the T7 polymerase mMessage mMachine kit (Thermo Fisher Scientific), after vector linearization, from cDNA sub-cloned into plasmids incorporating Xenopus laevis β-globin 5′ and 3′ UTRs flanking the coding region to enhance translation and cRNA stability. cRNA was quantified by spectrophotometry. Mutant KCNQ2 and KCNQ3 cDNAs were generated with site-directed mutagenesis using a QuikChange kit according to the manufacturer's protocol (Stratagene, San Diego, Calif.) and corresponding cRNAs prepared as above. Defolliculated stage V and VI Xenopus laevis oocytes (Ecocyte Bioscience, Austin, Tex.) were injected with KCNQ channel α subunit cRNAs (5-10 ng). The oocytes were incubated at 16° C. in Barth's saline solution (Ecocyte) containing penicillin and streptomycin, with daily washing, for 2-5 days prior to two-electrode voltage-clamp (TEVC) recording.
(§4) TEVC recording was performed at room temperature using a OC-725C amplifier (Warner Instruments, Hamden, Conn.) and pClamp8 software (Molecular Devices, Sunnyvale, Calif.) 2-5 days after cRNA injection as described in the section above. The oocytes were placed in a small-volume oocyte bath (Warner) and viewed with a dissection microscope. Unless otherwise stated, chemicals were sourced from Sigma. Bath solution was (in mM): 96 NaCl, 4 KCl, 1 MgCl2, 1 CaCl2, 10 HEPES (pH 7.6).

[1] = test system: pentylene tetrazole-induced seizures; test: PTZ chemoconvulsant assay; type: in vivo, mouse; settings: for clonic seizure incidence: alone
From the text: We compared anticonvulsant activities of test compounds in male C57BL/6 mice (Charles River) aged 2-3 months. Mice were housed and used according to the recommendations in the Guide for the Care and Use of Laboratory Animals of the National Institutes of Health (NIH Publication, 8th edition, 2011). The study protocol was approved by the Institutional Animal Care and Use Committee of University of California, Irvine, which confirmed that all relevant ethical regulations were adhered to. Chemicals were sourced from Sigma (St. Louis, Mo., USA). A pentylene tetrazole (PTZ) chemoconvulsant assay was used-. […] Following the PTZ injection, mice were caged individually and an observer (GWA) blinded to the drug used recorded, over 20 min, clonic and tonic seizure incidence, and seizure-related mortality.
We quantified the anticonvulsant activities of (E)-2-dodecenal and tridecanal in male C57BL/6 mice (Charles River, Wilmington, Mass.) aged 2-3 months. The mice were housed and used according to the recommendations in the Guide for the Care and Use of Laboratory Animals of the National Institutes of Health (NIH Publication, 8th edition, 2011). The study protocol was approved by the Institutional Animal Care and Use Committee of University of California, Irvine. The chemicals were sourced from Sigma (St. Louis, Mo., USA). We used a pentylene tetrazole (PTZ) chemoconvulsant assay as we previously described (30). We injected the mice intraperitoneally with (E)-2-dodecenal (2 or 20 mgkg^−1) (with or without 2.5 mgkg^−1 XE991) or tridecanal (20 mgkg^−1) solubilized in PBS, or vehicle control (PBS), and then 30 minutes later we injected mice intraperitoneally with 80 mgkg-PTZ. Following the PTZ injection, the mice were caged individually and an observer (GWA) blinded to the experimental condition timed the latency to first seizure.
We compared anticonvulsant activities of 3FMSG in male C57BL/6 mice (Charles River) aged 2-3 months. Mice were housed and used according to the recommendations in the Guide for the Care and Use of Laboratory Animals of the National Institutes of Health (NIH Publication, 8th edition, 2011). The study protocol was approved by the Institutional Animal Care and Use Committee of University of California, Irvine, which confirmed that all relevant ethical regulations were adhered to. Chemicals were sourced from Sigma (St. Louis, Mo., USA). We used a pentylene tetrazole (PTZ) chemoconvulsant assay as we previously described^27. Mice were injected intraperitoneally with 3FMSG (5 mg kg^−1) or vehicle control (PBS) and then 30 minutes later injected intraperitoneally with 80 mg kg^−1 PTZ. Following the PTZ injection, mice were caged individually and an observer (GWA) blinded to the drug used recorded seizure activity over 20 minutes.

KCNQ2 = KCNQ2 (Homo sapiens, UniProt O43526); test: TEVC of homomeric KCNQ2 expressed in Xenopus oocytes; type: cell-based
From the text: as §1, §2, §3, §4

CS(=O)(=O)N(CC(=O)O)c1cccc(F)c1 [3FMSG]
effect on KCNQ4 (in words) (KCNQ4): negligible effects | incidence of PTZ-induced tonic seizures ([1]; 5 mg/kg i.p.): reduced by threefold | effect of tenfold excess (100 μM) on KCNQ2 activation by 2FPG (10 μM) (KCNQ2): subtly reduced the efficacy | effect on KCNQ2 (in words) (KCNQ2): negligible effects

CCCCCCCCC/C=C/C=O [(E)-2-dodecenal]
latency to first PTZ-induced seizure ([1]; 2 mgkg−1 i.p.): threefold | latency to first PTZ-induced seizure ([1]; 20 mgkg−1 i.p.): > threefold | EC50 (KCNQ2; read-out: EC50 of KCNQ2 activation by (E)-2-dodecenal): 0.06 ± 0.01 µM

CC(=O)c1c(O)c(C)c(O)c(Cc2c(O)c3c(c(C(=O)/C=C/c4ccccc4)c2O)OC(C)(C)C=C3)c1O [MTX, mallotoxin]
shift of midpoint voltage of KCNQ4 activation (KCNQ4; MTX 30 μM): −17 mV | EC50 (KCNQ4; −60 mV, read-out: EC50 of KCNQ4 activation): 20.2 µM | clonic seizure incidence ([1]; 10 mg/kg i.p.): neither compound reduced clonic seizures alone | clonic seizure incidence ([1]; 20 mg/kg i.p.): halved | suppression of PTZ-induced tonic seizures ([1]; individually): ineffective | shift of midpoint voltage of KCNQ2 activation (KCNQ2; MTX 30 μM): −24 mV | EC50 (KCNQ2; −60 mV, read-out: EC50 of KCNQ2 activation): 6.4 µM

NCC1(CC(=O)O)CCCCC1 [gabapentin, reference compound]
effect on KCNQ4 (in words) (KCNQ4): insensitive | effect on KCNQ2 (in words) (KCNQ2): insensitive

NCC(=O)O [glycine, reference compound]
effect on KCNQ4 (in words) (KCNQ4): unable to open | effect on KCNQ2 (in words) (KCNQ2): unable to open
